Laboratory results from patent US10765114B2, “4-amino-6-(pyridyl and 2-substitutedphenyl)-picolinates and 6-amino-2-(pyridyl and 2-substitutedphenyl)-pyrimidine-4-carboxylates and their use as herbicides” (Dow AgroSciences LLC, priority 2013, dated 2020).
Read-outs that look alike come from different tables or passages of the source.

Legend:
[1] = test system: Key Grass and Sedge Weeds as well as Grass Crops; assay: Post-Emergent Test II (Table 6); assay type: in vivo; settings: post-emergence, 336 h, 14 days after application; for pest or weed control at 70 g/ha: 70 g ai/ha; for pest or weed control at 140 g/ha: 140 g ai/ha
Summary of the method: (§1)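 Seedlings are raised 7-21 days in Metro-Mix 360 (pH 6.0-6.8) under greenhouse conditions, then sprayed at the first or second true leaf stage. Application is 187 L/ha, with serial rates down to 1/16× of the highest. Plants are subirrigated, and percent injury is rated visually after 14 days.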

[2] = test system: Key Broadleaf Weed and Crop Species; assay: Post-Emergent Test II (Table 5); assay type: in vivo; settings: post-emergence, 336 h; for pest or weed control at 70 g/ha: application rate 70 (kg ai/ha; footnote: g ai/ha); for pest or weed control at 140 g/ha: application rate 140 (kg ai/ha; footnote: g ai/ha)
Summary of the method: as §1

[3] = CYPSS, read-out: Visual Growth Reduction (%) 14 Days After Application CYPSS
[4] = DIGSA: crabgrass (Digitaria sanguinalis), read-out: Visual Growth Reduction (%) 14 Days After Application DIGSA
[5] = ECHSS, read-out: Visual Growth Reduction (%) 14 Days After Application ECHSS
[6] = ORYSS (crop), read-out: Visual Growth Reduction (%) 14 Days After Application ORYSS
[7] = SETFA: giant foxtail (Setaria faberi), read-out: Visual Growth Reduction (%) 14 Days After Application SETFA
[8] = SORVU: grain sorghum (Sorghum vulgare), read-out: Visual Growth Reduction (%) 14 Days After Application SORVU
[9] = TRZSS (crop), read-out: Visual Growth Reduction (%) 14 Days After Application TRZSS
[10] = ZEAMX: maize, corn (Zea mays), read-out: Visual Growth Reduction (%) 14 Days After Application ZEAMX
[11] = Abutilon theophrasti, ABUTH: velvetleaf (Abutilon theophrasti), read-out: Visual Growth Reduction (%) 14 Days After Application ABUTH
[12] = Amaranthus retroflexus, AMARE: redroot pigweed (Amaranthus retroflexus), read-out: Visual Growth Reduction (%) 14 Days After Application AMARE
[13] = Brassica napus, BRSSS: oilseed rape, canola (Brassica napus), read-out: Visual Growth Reduction (%) 14 Days After Application BRSSS
[14] = Chenopodium album, CHEAL: lambsquarters (Chenopodium album), read-out: Visual Growth Reduction (%) 14 Days After Application CHEAL
[15] = Euphorbia heterophylla, EPHHL: wild poinsettia (Euphorbia heterophylla), read-out: Visual Growth Reduction (%) 14 Days After Application EPHHL
[16] = Helianthus annuus, HELAN: sunflower (Helianthus annuus), read-out: Visual Growth Reduction (%) 14 Days After Application HELAN
[17] = Viola tricolor, VIOTR: wild pansy (Viola tricolor), read-out: Visual Growth Reduction (%) 14 Days After Application VIOTR

Row | Structure (SMILES) | pest or weed control at 70 g/ha [1, 3] [%] | pest or weed control at 140 g/ha [1, 3] [%] | pest or weed control at 70 g/ha [1, 4] [%] | pest or weed control at 140 g/ha [1, 4] [%] | pest or weed control at 70 g/ha [1, 5] [%] | pest or weed control at 140 g/ha [1, 5] [%] | pest or weed control at 70 g/ha [1, 6] [%] | pest or weed control at 140 g/ha [1, 6] [%] | pest or weed control at 70 g/ha [1, 7] [%] | pest or weed control at 140 g/ha [1, 7] [%] | pest or weed control at 70 g/ha [1, 8] [%] | pest or weed control at 140 g/ha [1, 8] [%] | pest or weed control at 70 g/ha [1, 9] [%] | pest or weed control at 140 g/ha [1, 9] [%] | pest or weed control at 70 g/ha [1, 10] [%] | pest or weed control at 140 g/ha [1, 10] [%] | pest or weed control at 70 g/ha [2, 11] [%] | pest or weed control at 140 g/ha [2, 11] [%] | pest or weed control at 70 g/ha [2, 12] [%] | pest or weed control at 140 g/ha [2, 12] [%] | also measured
1 | Nc1c(F)c(-c2ccc(Br)nc2)nc(C(=O)O)c1Cl [Compound 8, 4-amino-6′-bromo-5-chloro-3-fluoro-[2,3′-bipyridine]-6-carboxylic acid] | 95 to 100 | 95 to 100 | 85 to 94 | 95 to 100 | 85 to 94 | 95 to 100 | 60 to 74 | 75 to 84 | 85 to 94 | 85 to 94 | 85 to 94 | 95 to 100 | 85 to 94 | 95 to 100 | 85 to 94 | 95 to 100 | 85 to 94 | 95 to 100 | 95 to 100 | 95 to 100 | pest or weed control at 70 g/ha [2, 13]: 95 to 100%; pest or weed control at 140 g/ha [2, 13]: 95 to 100%; pest or weed control at 70 g/ha [2, 14]: 95 to 100%; pest or weed control at 140 g/ha [2, 14]: 95 to 100%; pest or weed control at 70 g/ha [2, 15]: 75 to 84%; pest or weed control at 140 g/ha [2, 15]: 95 to 100%; pest or weed control at 70 g/ha [2, 16]: 95 to 100%; pest or weed control at 140 g/ha [2, 16]: 95 to 100%; pest or weed control at 70 g/ha [2, 17]: 95 to 100%; pest or weed control at 140 g/ha [2, 17]: 95 to 100%
2 | C=Cc1c(-c2cc(N)c(Cl)c(C(=O)O)n2)ccc(Cl)c1F [Compound 89, 4-Amino-3-chloro-6-(4-chloro-3-fluoro-2-vinylphenyl)picolinic acid] | 0 to 29 | 0 to 29 | 30 to 44 | 75 to 84 | 75 to 84 | 85 to 94 | 0 to 29 | 0 to 29 | 0 to 29 | 0 to 29 | 0 to 29 | 0 to 29 | 0 to 29 | 0 to 29 | 0 to 29 | 0 to 29 | 85 to 94 | 95 to 100 | 95 to 100 | 95 to 100 | pest or weed control at 70 g/ha [2, 13]: 95 to 100%; pest or weed control at 140 g/ha [2, 13]: 95 to 100%; pest or weed control at 70 g/ha [2, 14]: 95 to 100%; pest or weed control at 140 g/ha [2, 14]: 95 to 100%; pest or weed control at 70 g/ha [2, 15]: 30 to 44%; pest or weed control at 140 g/ha [2, 15]: 45 to 59%; pest or weed control at 70 g/ha [2, 16]: 95 to 100%; pest or weed control at 140 g/ha [2, 16]: 95 to 100%; pest or weed control at 70 g/ha [2, 17]: 45 to 59%; pest or weed control at 140 g/ha [2, 17]: 60 to 74%
3 | COC(=O)c1nc(-c2ccc(Cl)c(F)c2CO)cc(N)c1Cl [Compound 29, Methyl 4-amino-3-chloro-6-(4-chloro-3-fluoro-2-(hydroxymethyl)phenyl)picolinate] | 0 to 29 | 0 to 29 | 0 to 29 | 0 to 29 | 0 to 29 | 0 to 29 | 0 to 29 | 0 to 29 | 0 to 29 | 0 to 29 | 0 to 29 | 0 to 29 | 0 to 29 | 0 to 29 | 0 to 29 | 0 to 29 | 0 to 29 | 0 to 29 | 0 to 29 | 0 to 29 | pest or weed control at 70 g/ha [2, 13]: 0 to 29%; pest or weed control at 140 g/ha [2, 13]: 0 to 29%; pest or weed control at 70 g/ha [2, 14]: 85 to 94%; pest or weed control at 140 g/ha [2, 14]: 85 to 94%; pest or weed control at 70 g/ha [2, 15]: 0 to 29%; pest or weed control at 140 g/ha [2, 15]: 0 to 29%; pest or weed control at 70 g/ha [2, 16]: 0 to 29%; pest or weed control at 140 g/ha [2, 16]: 0 to 29%; pest or weed control at 70 g/ha [2, 17]: 0 to 29%; pest or weed control at 140 g/ha [2, 17]: 0 to 29%
4 | C#Cc1c(-c2cc(N)c(Cl)c(C(=O)OC)n2)ccc(Cl)c1F [Compound 75, methyl 4-amino-3-chloro-6-(4-chloro-2-ethynyl-3-fluorophenyl)picolinate] | 0 to 29 | 0 to 29 | 0 to 29 | 0 to 29 | 0 to 29 | 0 to 29 | 0 to 29 | 0 to 29 | 0 to 29 | 0 to 29 | 0 to 29 | 0 to 29 | 0 to 29 | 0 to 29 | 0 to 29 | 0 to 29 | 0 to 29 | 0 to 29 | 0 to 29 | 0 to 29 | pest or weed control at 70 g/ha [2, 13]: 0 to 29%; pest or weed control at 140 g/ha [2, 13]: 0 to 29%; pest or weed control at 70 g/ha [2, 14]: 75 to 84%; pest or weed control at 140 g/ha [2, 14]: 75 to 84%; pest or weed control at 70 g/ha [2, 15]: 0 to 29%; pest or weed control at 140 g/ha [2, 15]: 0 to 29%; pest or weed control at 70 g/ha [2, 16]: 0 to 29%; pest or weed control at 140 g/ha [2, 16]: 0 to 29%; pest or weed control at 70 g/ha [2, 17]: 0 to 29%; pest or weed control at 140 g/ha [2, 17]: 0 to 29%
